Laboratory results: patent publication US9956202B2, “Use of indolyl and indolinyl hydroxamates for treating neurodegenerative disorders or cognitive decicits” (Taipei Medical University, priority 2013, dated 2018)

How the values were obtained:
[1] = test system: histone 3 and 4 acetylation, p21 and phospho-ERK; experiment: Western blot of histone 3 and 4 acetylation, p21 and phospho-ERK after spinal cord injury; type: in vivo, rats; conditions: 100 mg/kg intravenous injection, vs vehicle control
Description: (§1) In this example, effects of compounds of this invention were verified using spinal cord injury animal model.
(§2) The spinal cord injury was produced by using the NYU (New York University) impactor device. The spinal cord contusion was performed under deep anesthesia with Zoleti150 (40 mg/kg i.p.) After a dorsal laminectomy was performed on T9, the spinal cord segments T9 were exposed. Then, the surgery of spinal cord injury was produced by dropping the 10 gram rod from a height of 50 mm.
(§3) Compound 1 was dissolved in 5% ethanol, 35% polyethylene glycol and 60% normal saline at a concentration of 15 mg/ml. […]

[2] = test system: NeuN-positive neurons of spinal cord; experiment: NeuN immunohistochemistry after spinal cord injury; type: in vivo; conditions: rats after spinal cord injury, 30 mg/Kg per day for 7 days, vs vehicle
Description: as §1, §2, §3
(§4) On 7th day after hemisection spinal cord injury, animals were deeply anesthetized by isoflurane and perfused through the left ventricle with phosphate-buffered saline (PBS), followed by cold 4% paraformaldehyde in 0.15M sodium phosphate buffer, pH 7.4. […] Furthermore, apoptosis after spinal cord injury was detected by terminal deoxynucleotidyl transferase-mediated deoxyuridine triphosphate nick-end labeling (TUNEL) using the apoptosis detection kit (Oncogene Research Products, Cambridge, Mass.). […] Only cells with clearly visible stain were counted. All data are presented as means±SEM of five consecutive cell quantifications.

[3] = test system: Sprague-Dawley rats with spinal cord injury; experiment: BBB Locomotor Rating Scale after spinal cord injury; type: in vivo; conditions: intravenous 30 mg/Kg per day for 7 days, 7 days after spinal cord injury, vs vehicle, p=0.0147
Description: as §1
Male Sprague-Dawley rats (Academia Sinica, Taiwan), weighing 280-330 g, were kept two per cage for at least five days after their arrival. The rats had access to food and water at libitum and were housed within a room with a 12:12 h dark-light cycle. This study was performed in accordance with the guidelines provided by the Experimental Animal Laboratory and approved by the Animal Care and Use Committee in Taipei Medical University.
as §2
Behavioral tests and analyses were performed by observers blinded to the treatments. Locomotor function was observed and recorded using the Basso, Beattie, and Bresnahan (BBB) Locomotor Rating Scale. On days 1, 3, and 7 post injury, hindlimb motor function was assessed using the open-field BBB score locomotor test.
as §3

[4] = test system: apoptotic cells of spinal cord; experiment: TUNEL staining of apoptosis after spinal cord injury; type: in vivo; conditions: rats after spinal cord injury, 30 mg/Kg per day for 7 days, vs vehicle
Description: as §1, §2, §3, §4

C57BL/6J mice = experiment: Contextual fear conditioning (freezing behavioral test) in normal mice; type: in vivo; conditions: normal C57BL/6J mice; 50, 100, 200 mg/kg intraperitoneally once before training; test 24 h after training; dose dependent; *p<0.05, **p<0.01
Text: (§5) Tg2576 transgenic mice carry a transgene coding for the 695-amino acid isoform of human APP derived from a large Swedish family with early-onset Alzheimer's disease (AD). These mice express high concentrations of the mutant Aβ, develop significant number of amyloid plaques and display memory deficits. Tg2576 mice were purchased from The Jackson laboratory (Maine, US). C57BL/6J mice 6-8 week of age were purchased from BioLASCO Taiwan Co., Ltd for dose-dependent effect study. The animals were housed 5 per cage in a temperature (21±1° C.)—and humidity (70±5%)—controlled room, under a 12 h-12 h light-dark cycle (lights on at 6:00 a.m.). Animal had free access to food and water during the experiment. Behavior testing was carried out in the light phase of the cycle. All animal experiments were carried out in accordance with the guidelines established by the Institutional Animal Care and Utilization Committee of the Taipei Medical University (Taipei, Taiwan, R.O.C.).
as §3
(§6) All mice were transported to the laboratory for 2 hour before training to erase unnecessary stress. […] The data was recorded and calculated by its system software (TruScan 2.02).

[5] = test system: synaptic plasticity proteins; experiment: Western blotting of synaptic plasticity proteins in hippocampus of Tg2576 mice; type: in vivo; conditions: oral gavage 50 mg/kg per day for 20 days
Description: (§7) Tg2576 transgenic mice carry a transgene coding for the 695-amino acid isoform of human APP derived from a large Swedish family with early-onset Alzheimer's disease (AD). These mice express high concentrations of the mutant Aβ, develop significant number of amyloid plaques and display memory deficits.
Compound 1 was dissolved in 5% ethanol, 35% polyethylene glycol and 60% normal saline at a concentration of 15 mg/ml. C57BL/6J Mice were treated with Compound 1 (50, 100, 200 mg/kg, intraperitoneally) or vehicle once before contexual fear conditioning training. Then, Tg2576 transgenic mice were treated with Compound 1 orally (50 mg/kg per day for 20 days) or vehicle at the ages of 5 months and 11 months.
Animals were deep anesthetized with choral hydrate (400 mg/kg) and perfused with both normal saline and 4% paraformaldehyde. The hippocampus were collected and lysed in lysis buffer (Lysis-M reagent, Roche). The lysates were incubated for 5 min on ice and centrifuged for 20 min at 14,000 r.p.m. and 4° C. The supernatant was collected as cytosolic protein extract. Protein concentrations were measured and normalized using Bradford protein assay kit (Pierce). After normalization, 30 μg of protein was subjected to western blotting. Immunoreactivity was examined by enhanced chemiluminescence (Millipore).

Tg2576 mice = experiment: Contextual fear conditioning (CS-US pairing) in dementia animal model; type: in vivo; conditions: orally 50 mg/kg per day for 20 days, 6-month old p=0.0264, 12-month old p=0.0028 vs untreated of same age
Text: as §7
as §5, with “All animal experiments were carried out in accordance with the guidelines established by the Institutional Animal Care and Utilization Committee of the Taipei Medical University (Taipei, Taiwan, R.O.C.).” left out
as §6

In the case of `O=C(/C=C/c1ccc2c(ccn2S(=O)(=O)c2ccccc2)c1)NO` [compound 1, 3-(1-benzensulfonyl-1H-indol-5-yl)-N-hydroxy-acrylamide], the “expression of histone 4 acetylation (ac-H4)” value ([1]; p=0.0023) is reported as “Significant increase”, the “expression of p21” value ([1]; p=0.0043) is reported as “Significant increase” and the “expression of phospho-ERK (p-ERK)” value ([1]; p=0.0311) is reported as “Significant increase”. For the same compound, the “expression of histone 3 acetylation (ac-H3)” value ([1]; p=0.0451) was “Significant increase”, the “neuron cells percentage (NeuN)” value ([2]; p<0.0001) was “significantly preserved” and the “neuron cells number (NeuN)” value ([2]; p=0.0151) was “significantly preserved”. For the same compound, the “BBB score (motor function)” value [3] was “significant recovery”, the “apoptotic cells number (TUNEL)” value ([4]; p=0.0015) was “significantly reduced” and the “apoptotic cells percentage (TUNEL)” value ([4]; p=0.0098) was “significantly reduced”. The “strength of tone-shock pairing memory (freezing behavioral test)” value (C57BL/6J mice) was “increased significantly”, the “acetyl-Histone H4 expression in hippocampus” value ([5]; ###p=0.0008) was “elevated” and the “p21 expression in hippocampus” value ([5]; #p=0.0145) was “elevated”. For the same compound, the “NR2a protein expression in hippocampus” value ([5]; #p=0.0231) was “elevated”, the “pERK expression in hippocampus” value ([5]; #p=0.0428) was “elevated” and the “NR2b protein expression in hippocampus” value ([5]; #p=0.0492) was “elevated”. For the same compound, the “tone-shock pairing memory (contextual fear conditioning)” value (Tg2576 mice) was “enhanced”.
